In patent US7220425B2, “Method for therapy of liver tumors” (Federalnoe Gosudarstvennoe Unitarnoe Predpriyatie …, priority 2000, dated 2007):

Tests used:
Assay type in all cases: in vivo, rats
[1] = Distribution of Teraphtalum with the known regional administration (general trunk of portal vein); conditions: known regional method, 5 mg/kg
Method: (§1) The studies were carried out on mongrel rats weighing 150 g, obtained from the N. V. Blokhin ONTs breeder and contained in the vivarium of that center.
Teraphtalum (TP) was administered once into the general trunk of the portal vein in a dose of 5 mg/kg (this was 1 mg of TP for a rat weighing 200 g). Accumulation of the preparation in the liver, lungs and its level in blood plasma were evaluated by the spectrophotometric method 5, 35 and 240 minutes after the administration.

[2] = Distribution of Teraphtalum with the proposed regional method (branch of portal vein of target lobe with occlusion); conditions: for Content of Teraphtalum: proposed method, 0.3 mg (0.6 ml, 0.01% solution), healthy rats
Method: (§2) Practically speaking, the method is carried out in the following manner. A median laparotomy is conducted, afferent (a branch of the portal vein and hepatic artery) and efferent (a branch of the hepatic vein) vessels of the target lobe of the liver are isolated. They are taken on tourniquets. A puncture of the branch of the portal vein is made, the preparation is introduced therein, simultaneously stopping the flow of blood: the blood inflow—through branches of the portal vein (proximal to the place of puncture) and the hepatic artery, outflow—through a branch of the hepatic vein. Restoration of the blood flow is accomplished by removing clamps from the vessels 5–15 minutes after administration of the preparation.
as §1
(§3) Teraphtalum in a dose of 60 or 300 μg per rat in the form of 0.6 ml of a 0.01 and 0.05% solution was administered into a branch of the portal vein of a target lobe of the liver.
Accumulation of the preparation in the target lobe (subjected to occlusion), in the intact lobe of the liver (not subjected to occlusion) and also in the blood plasma were studied 5, 35 and 240 minutes after administration of the preparation by the proposed method.

[3] = Effect of length of occlusion of afferent and abducent vessels on accumulation of Teraphtalum; conditions: for Content of Teraphtalum: 35 min after administration
Method: as §2, §3
The results of a study of the effect of the length of the period of occlusion of the afferent and abducent vessels of the target lobe of the liver on the accumulation of TP therein are presented in Table 3.

Structure (SMILES): O=C(O)c1cc2c(cc1C(=O)O)C1=Nc3c4cc(C(=O)O)c(C(=O)O)cc4c4[n]3[Co][n]3c(c5cc(C(=O)O)c(C(=O)O)cc5c3=NC3=NC(=N4)c4cc(C(=O)O)c(C(=O)O)cc43)=NC2=N1 [Teraphtalum, cobalt octacarboxy phthalocyanine]
- Content of Teraphtalum ([1]; liver, 5 min after administration): 15 μg/g of untreated tissue
- Content of Teraphtalum ([1]; liver, 35 min after administration): 60 μg/g of untreated tissue
- Content of Teraphtalum ([1]; liver, 240 min after administration): 51 μg/g of untreated tissue
- Content of Teraphtalum ([1]; lungs, 5 min after administration): 46 μg/g of untreated tissue
- Content of Teraphtalum ([1]; lungs, 35 min after administration): 28 μg/g of untreated tissue
- Content of Teraphtalum ([1]; lungs, 240 min after administration): 57 μg/g of untreated tissue
- Content of Teraphtalum ([1]; plasma, 5 min after administration): 92.4 μg/g of untreated tissue
- Content of Teraphtalum ([1]; plasma, 35 min after administration): 39.6 μg/g of untreated tissue
- Content of Teraphtalum ([1]; plasma, 240 min after administration): 14.4 μg/g of untreated tissue
- Concentration of TP in target lobe of liver, proposed method versus known regional method ([2]; first minutes after administration, dose in proposed method 16.5 times less): 2 times higher
- Content of Teraphtalum ([2]; intact lobe of liver, 5 min): 7 μg/g of untreated tissue
- Content of Teraphtalum ([2]; intact lobe of liver, 35 min): 5 μg/g of untreated tissue
- Content of Teraphtalum ([2]; intact lobe of liver, 240 min): 9 μg/g of untreated tissue
- Content of Teraphtalum ([2]; plasma, 5 min): 3 μg/g of untreated tissue
- Content of Teraphtalum ([2]; target lobe of liver, 5 min): 30 μg/g of untreated tissue
- Content of Teraphtalum ([2]; target lobe of liver, 35 min): 33 μg/g of untreated tissue
- Content of Teraphtalum ([2]; target lobe of liver, 240 min): 48 μg/g of untreated tissue
- Content of Teraphtalum ([3]; blood plasma, control = selective administration without occlusion): 6 µg/g
- Content of Teraphtalum ([3]; blood plasma, occlusion 5 min, 0.3 mg (0.6 ml of 0.01% solution), proposed method): 5 µg/g
- Content of Teraphtalum ([3]; blood plasma, occlusion 15 min, 0.3 mg (0.6 ml of 0.01% solution), proposed method): 7 µg/g
- Content of TP ([3]; intact lobe of liver as worded in text, without occlusion (control), 30 minutes after administration): 20 µg/g
- Content of Teraphtalum ([3]; intact lobe of liver, occlusion 5 min, 0.3 mg (0.6 ml of 0.01% solution), proposed method): 7 µg/g
- Content of Teraphtalum ([3]; intact lobe of liver, occlusion 15 min, 0.3 mg (0.6 ml of 0.01% solution), proposed method): 6 µg/g
- Content of Teraphtalum ([3]; intact lobe, control = selective administration without occlusion): 17 µg/g
- Content of Teraphtalum ([3]; target lobe of liver, occlusion 5 min, 0.3 mg (0.6 ml of 0.01% solution), proposed method): 35 µg/g
- Content of Teraphtalum ([3]; target lobe of liver, occlusion 15 min, 0.3 mg (0.6 ml of 0.01% solution), proposed method): 35 µg/g
- Content of Teraphtalum ([3]; target lobe, control = selective administration without occlusion): 20 µg/g
- Content of TP ([3]; that (target) lobe as worded in text, without occlusion (control), 30 minutes after administration): 17 µg/g
- Level of TP in the plasma ([3]; without occlusion (control), 30 minutes after administration): 6 μg/g of untreated tissue
